Like-named read-outs stand apart in the source and are kept apart here.
What was measured:
Assay type in all cases: cell-based, murine
HNMMCV14.1.A [1] = assay: Ca2+-imaging (Fura-2) of intracellular calcium after application of agonists
Protocol: (§1) Fluorescent Probe: Dynamic changes of intracellular calcium concentration were measured using the Fura-2 fluorescent probe (Roe et al. 1990, Cell Calcium 11:63-73). This fluorescent dye was chosen because of its selectivity, high quantum yield and extinction co-efficient. Fura-2 permeates the living cell as a acetoxymethylester and becomes trapped within the cell after hydrolysis by intracellular esterases. The calcium-sensitive free acid of Fura-2 is able to bind to calcium ions inside the cell. Fura-2 has an excitation maximum at 380 nm and the Fura2/calcium complex peaks at 340 nm. A change in intracellular calcium concentration was calculated by recording fluorescent video images at wavelengths of 340nm and 380nm excitation and 510nm emission and by dividing the grey values of the digitized video images of 380nm from 340nm.
(§2) Loading cells with Fura-2: A stock solution with 2mM Fura-2-acetoxymethylester in dimethylsulfoxide (DMSO) was diluted to 5-10 µM with serum free Minimal Essential Medium (MEM, Gibco) containing 1.5% bovine serum albumin and 5 mM calcium chloride. The cells were incubated in a Falcon 96 well plate for 45-60 minutes at 37°C. Subsequently the cells were washed twice in N-(2-Hydroxyethyl)piperazine-N'-(2-ethanesulfonic acid) (HEPES, 5mM) buffered Tyrode solution (HEPES buffered salt solution containing 130 mM NaCl, 5 mM KCl, 2 mM CaCl2, 1 mM MgCl2, 5mM NaHCO3, 11 mM Glucose).
(§3) Imaging procedure: 100 µl of Tyrode buffer was added to the plate wells and the cells were sequencially exposed to light at 340 nm and 380 nm under a fluorescent microscope (Nikon Diaphot). The exposition time was 100 ms. A series of video images at 3 second intervals was acquired and stored as digitised pictures in the image boards of an image analysis computer (Leica, Quantimet 570). After the acquisition of 8 images the test substances were applied. The grey levels of the cells, which correspond to the fluorescence intensity, were measured in the recorded video images. The ratio was determined by dividing the measured grey levels of the "380 nm images" by the grey levels of the "340 nm images" either from averaged images or from individual cells. For averaged results, the grey levels were measured over the whole images.
(§4) The cells were loaded with Fura 2/AM between day 3 and 7 in culture. A number of agonists were tested for their ability to activate specific receptors on the cell surface which lead to a rise in intracellular calcium. The rise in calcium concentration in the cytoplasm can occur after activation of specific calcium channels in the cell membrane, after activation of neurotransmitter receptors directly coupled to ion channels that are permeable to calcium ions (i.e. NMDA or AMPA type glutamate receptors), or by activation of receptors, which propagate the signal through the activation of specific G-proteins, which regulate the activity of different enzymes in the interior of the cell (Connor, Cell Calcium 14 (1993), 185-200; Crouch and Hendry, Medical Res. Rev. 13 (1993), 105-123). The activation of phospholipase C generates the second messengers diacylglycerol and inositoltriphosphate from phospholipids in the cell membrane. The binding of inositoltriphosphate to receptors localised on internal vesicles which store calcium ions leads to a transient rise in the concentration of calcium ions in the cytoplasm (Berridge, M.J. 1993, Nature 361: 315-325).

HC e/n XV.B cells = assay: as above
Protocol: as §1, §2, §3, §4

HNMMCV13.1.F = assay: as above
Protocol: as §1, §2, §3, §4

HNMMCV11.2.0 = assay: as above
Protocol: as §1, §2, §3, §4

HNMMCV13.1.E = assay: as above
Protocol: as §1, §2, §3, §4

HC e/n XVB cells = assay: Whole-cell patch-clamp recording of ligand-activated currents; conditions: for ligand-activated currents (electrophysiological recordings): membrane potential clamped to -70mV
Protocol: (§5) Electrophysiological setup: Membrane currents were measured with the patchclamp technique in the whole-cell recording configuration (Hamill et al. 1981, Pfluegers Arch. 391:85-100). Current signals were amplified with conventional electronics (EPC-9 amplifier, HEKA Elektronik GmbH, Lambrecht, Germany), filtered at 10kHz, and sampled at 5 kHz by an interface connected to an IBM AT-compatible computer system, which also served as a stimulus generator.
(§6) Solutions and electrodes: The standard bathing solution contained (in mM): Nacl 150, KCL 5, MgCl2 1.8, HEPES 5, and glucose 10. In some experiments an equimolar amount of NaCl was replaced by 5mM BaCl2. Recording pipettes had resistances about 5MΩ (Hilgenberg, Malsfeld, Germany). The pipettes contained (in mM): KCL 140, CaCl2 0.5, EGTA 5, MgCl2 2, and HEPES 10. The pH was adjusted to 7.4. In some experiments the pipette solution was designed to minimize the contribution of voltage-activated currents. In this case, investigating the ligand-activated currents, the pipette solution contained (in mM): CsCl 140, EGTA 10, and HEPES 10.
(§7) Ligands were dissolved in the extracellular saline solution and applied via an U-tube application system. To record ligand-induced currents, the membrane potential was clamped to -70mV. For measurements of voltage-activated currents, cells were held at -70mV and every second the membrane was stepped through a 50 msec. de- or hyperpolarising test pulse to a potential between -170 and +20 mV.

HNMMCV14.1.A [2] = assay: as above
Protocol: as §5, §6, §7

[3] = system: metabotropic glutamate receptor(s) (mGluR) expressed by HNMMCV14.1A cells; assay: Phosphoinositide hydrolysis: accumulation of 3H-inositol phosphates; conditions: for EC50: read-out: EC50 inositolphosphate accumulation
Protocol: Phosphoinositide hydrolysis was determined by measuring the accumulation of ^3H-inositol phosphates. The cells were plated in 48-well plates (Costar) at a density of 10000 cells per well and incubated for 4-5 days at 37°C, 7% CO2. Then the cells were labeled by incubation with 4 µCi of myo-2-^3H-inositol per ml medium (specific activity: […]: Amersham). After 24 h LiCl (10 mM final concentration) was added to the cells for 1 h. Agonists were then added at the concentrations indicated. The incubation was stopped after 1 h by replacing the medium with 200 µl ice-cold methanol. 400 µl of destilled water was added and the sample was directly applied to AG-1X8 ion exchange columns (AG-1X8 resin: BioRad). Free inositol and glycerophosphoryl-inositol were washed away with 16 ml destilled water followed by 10 ml 5 mM disodium-tetraborate, 60 mM sodium formate. Total ^3H-inositol phosphates (IP1, IP2, IP3) were eluted with 7 ml of 100 mM formic acid, 1 M ammonium formate. Radioactivity of the eluted ^3H-inositol phosphates was determined by liquid scintillation counting after addition of 13 ml liquid scintillation cocktail (Ultima Gold: Canberra Packard). Measurements were performed in triplicates for each experimental point. Untreated controls were set as 100% and the other values calculated in relation to this.
The columns were prepared as follows: 1 ml pipet tips were filled with one glass bead (Roth) per tip before adding 500 µl AG-1X8 resin. The resin was compressed with air and 270 µl seasand was applied. Until use they were stored at 4°C.

[4] = HC e/n XV.B cells, state of differentiation not stated, up to 1mM
[5] = HNMMCV13.1.F, concentrations (glutamate 10µM to 10 mM; AMPA, kainic acid, serotonine, dopamine, carbachol up to 1mM; NMDA up to 500µM)
[6] = 14.1.A, membrane potential clamped to -70mV
[7] = differentiated HC e/n XV.B cells
[8] = HNMMCV14.1A cells, agonist 1 h, LiCl 10 mM
[9] = differentiated HC e/n XVB cells, AMPA 100µM, NMDA 1mM, kainate 1mM, glutamate 1mM

## NCCc1ccc(O)c(O)c1 [Dopamine, dopamine]
HNMMCV14.1.A [1]; HNMMCV14.1.A
  rise in intracellular calcium concentration (result in words): did not lead to a specific signal
HC e/n XV.B cells; [4]
  rise in intracellular calcium concentration (result in words): did not lead to a specific signal
HNMMCV13.1.F; [5]
  rise in intracellular calcium concentration (result in words): did not lead to a specific signal
HNMMCV11.2.0; HNMMCV11.2.0
  rise in intracellular calcium concentration (result in words): did not lead to a specific signal
HNMMCV13.1.E; HNMMCV13.1.E
  rise in intracellular calcium concentration (result in words): did not lead to a specific signal

## CN[C@H](CC(=O)O)C(=O)O [NMDA, N-methyl-D-aspartate]
HC e/n XVB cells; XV. B/ - EGF
  ligand-activated currents (electrophysiological recordings): ++ (++: 30-70% positive cells)

## CC(=O)OCC[N+](C)(C)C [Acetylcholine, acetylcholine]
HNMMCV14.1.A [2]; [6]
  ligand-activated currents (electrophysiological recordings): + (+: 10-30% positive cells)
HC e/n XVB cells; XV. B/ - EGF
  ligand-activated currents (electrophysiological recordings): -

## L-carboxycyclopropylglycin [L-CCG 1]
HNMMCV14.1.A [1]; HNMMCV14.1.A
  rise in intracellular calcium concentration (result in words): strong
HC e/n XV.B cells; [7]
  rise in intracellular calcium concentration (result in words): weak signals
HNMMCV13.1.F; [5]
  rise in intracellular calcium concentration (result in words): strong
HNMMCV11.2.0; HNMMCV11.2.0
  rise in intracellular calcium concentration (result in words): strong
HNMMCV13.1.E; HNMMCV13.1.E
  rise in intracellular calcium concentration (result in words): strong

## C=C(C)[C@H]1CN[C@H](C(=O)O)[C@H]1CC(=O)O [Kainate, kainic acid]
HNMMCV14.1.A [2]
  ligand-activated currents (electrophysiological recordings): + / -
HC e/n XVB cells
  ligand-induced inward currents (result in words): evoked responses
HNMMCV14.1.A [1]
  rise in intracellular calcium concentration (result in words): did not result in a transient rise
  transient calcium currents after the application of agonists and antagonists (Calcium - Imaging): -
HC e/n XV.B cells
  rise in intracellular calcium concentration (result in words): reproducible calcium signal
HNMMCV13.1.F
  rise in intracellular calcium concentration (result in words): did not result in a transient rise
  transient calcium currents after the application of agonists and antagonists (Calcium - Imaging): -
HNMMCV11.2.0
  rise in intracellular calcium concentration (result in words): did not result in a transient rise
  transient calcium currents after the application of agonists and antagonists (Calcium - Imaging): -
HNMMCV13.1.E
  rise in intracellular calcium concentration (result in words): did not result in a transient rise
  transient calcium currents after the application of agonists and antagonists (Calcium - Imaging): -

## CN1CCc2cc3c(cc2[C@H]1[C@@H]1OC(=O)c2c1ccc1c2OCO1)OCO3 [bicuculline]
HC e/n XVB cells
  effect on the GABA-response: blocked

## NC(C(=O)O)c1cc(O)no1 (stereo not shown) [ibotenate]
[3]
  effect on inositolphosphate accumulation (result in words): concentration dependent increase
  maximum response of inositolphosphate accumulation compared with glutamate: slightly weaker
  EC50: 5 µM

## C[N+](C)(C)CCOC(N)=O [Carbachol]
HC e/n XV.B cells; [4]
  rise in intracellular calcium concentration (result in words): reproducible signal

## N[C@@H](Cn1oc(=O)[nH]c1=O)C(=O)O [Quisqualate, quisqualate]
[3]; HNMMCV14.1A cells
  effect on inositolphosphate accumulation (result in words): concentration dependent increase
  maximum response of inositolphosphate accumulation compared with glutamate: slightly weaker
[3]; [8]
  EC50: 0.02 µM

## Cc1onc(O)c1CC(N)C(=O)O (stereo not shown) [AMPA, ∝-amino-3-hydroxy-5-methyl-4-isoxazol-propionic acid]
HC e/n XVB cells; XV. B/ - EGF
  ligand-activated currents (electrophysiological recordings): + (+: 10-30% positive cells)
HC e/n XVB cells; [9]
  ligand-induced inward currents (result in words): evoked responses
HNMMCV14.1.A [1]; HNMMCV14.1.A
  rise in intracellular calcium concentration (result in words): did not result in a transient rise
HC e/n XV.B cells; undifferentiated HC e/n XV.B cells
  rise in intracellular calcium concentration (result in words): did not result in a transient rise
HNMMCV13.1.F; [5]
  rise in intracellular calcium concentration (result in words): did not result in a transient rise
HNMMCV11.2.0; HNMMCV11.2.0
  rise in intracellular calcium concentration (result in words): did not result in a transient rise
HNMMCV13.1.E; HNMMCV13.1.E
  rise in intracellular calcium concentration (result in words): did not result in a transient rise

## NCCc1c[nH]c2ccc(O)cc12 [Serotonine]
HNMMCV14.1.A [1]; HNMMCV14.1.A
  rise in intracellular calcium concentration (result in words): did not lead to a specific signal
HC e/n XV.B cells; [4]
  rise in intracellular calcium concentration (result in words): did not lead to a specific signal
HNMMCV13.1.F; [5]
  rise in intracellular calcium concentration (result in words): did not lead to a specific signal
HNMMCV11.2.0; HNMMCV11.2.0
  rise in intracellular calcium concentration (result in words): did not lead to a specific signal
HNMMCV13.1.E; HNMMCV13.1.E
  rise in intracellular calcium concentration (result in words): did not lead to a specific signal

## N#Cc1cc2[nH]c(=O)c(=O)[nH]c2cc1[N+](=O)[O-] [CNQX, 6-nitro-7-cyanochinoxalin-2,3-dione]
HNMMCV13.1.F; glutamate 100µM, CNQX 100µM, cells not given, Table 5 gives 13.1.F
  antagonism of the calcium signals recorded after application of glutamate: not antagonised

## NCc1cc(=O)[nH]o1 [muscimol]
HC e/n XVB cells; HC e/n XVB cells
  effect on the GABA-response: mimicked

## NCCCC(=O)O [GABA]
HNMMCV14.1.A [2]; [6]
  ligand-activated currents (electrophysiological recordings): ++ (++: 30-70% positive cells)
HC e/n XVB cells; XV. B/ - EGF
  ligand-activated currents (electrophysiological recordings): +++ (+++: 70-100% positive cells)
HC e/n XVB cells; XV. B
  ligand-activated currents (electrophysiological recordings): + (+: 10-30% positive cells)
HC e/n XVB cells; [9]
  ligand-induced inward currents (result in words): prominent resonses

## N[C@@]1(C(=O)O)CC[C@@H](C(=O)O)C1 [t-ACPD, 1S3R-aminocyclopentane-1,3-dicarboxylate]
[3]; HNMMCV14.1A cells
  effect on inositolphosphate accumulation (result in words): concentration dependent increase
  maximum response of inositolphosphate accumulation compared with glutamate: slightly weaker
[3]; [8]
  EC50: 20 µM
HNMMCV14.1.A [1]; HNMMCV14.1.A
  rise in intracellular calcium concentration (result in words): strong
HC e/n XV.B cells; [7]
  rise in intracellular calcium concentration (result in words): weak signals
HNMMCV13.1.F; [5]
  rise in intracellular calcium concentration (result in words): strong
HNMMCV11.2.0; HNMMCV11.2.0
  rise in intracellular calcium concentration (result in words): strong
HNMMCV13.1.E; HNMMCV13.1.E
  rise in intracellular calcium concentration (result in words): strong

Source: patent publication EP0773287A1, “Immortalised embryonic hyppocampal cells and their use” (BAYER AG, priority 1995, dated 1997)
